Experiment in all cases: Inhibition Assay
What all share (settings): pH 8; 25 °C

The target of test [1] is T1, dCTP deaminase (Campylobacter jejuni subsp. jejuni serotype O:2 (strain ATCC 700819 / NCTC 11168), UniProt Q9PN07).
T1 sequence (Q9PN07 whole entry): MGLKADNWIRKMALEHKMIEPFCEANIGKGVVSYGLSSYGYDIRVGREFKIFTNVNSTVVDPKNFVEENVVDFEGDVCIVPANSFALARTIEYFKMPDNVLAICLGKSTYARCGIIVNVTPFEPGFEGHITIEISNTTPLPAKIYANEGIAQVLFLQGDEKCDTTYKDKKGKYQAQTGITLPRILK
From the text:
(§1) Nucleotide hydrolysis was monitored by mixing enzyme and substrate with a rapid kinetic accessory (Hi-Tech Scientific) attached to a spectrophotometer (Cary 50). Protons, released through the hydrolysis of nucleotides, were neutralized with […] and monitored spectrophotometrically at the absorbance peak of the basic form of the indicator.

Test [2] addresses T2, Deoxyuridine 5'-triphosphate nucleotidohydrolase (Plasmodium falciparum (isolate 3D7), UniProt Q8II92).
T2 sequence (Q8II92 whole entry): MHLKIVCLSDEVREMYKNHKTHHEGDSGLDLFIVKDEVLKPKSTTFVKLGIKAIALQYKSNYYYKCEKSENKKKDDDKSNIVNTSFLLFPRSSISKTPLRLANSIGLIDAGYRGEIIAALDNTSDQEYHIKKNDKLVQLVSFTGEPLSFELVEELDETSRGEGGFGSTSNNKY
Text: as §1

For test [3], the target named is T3, Deoxyuridine 5'-triphosphate nucleotidohydrolase, mitochondrial (Homo sapiens, UniProt P33316).
T3 sequence (P33316 whole entry): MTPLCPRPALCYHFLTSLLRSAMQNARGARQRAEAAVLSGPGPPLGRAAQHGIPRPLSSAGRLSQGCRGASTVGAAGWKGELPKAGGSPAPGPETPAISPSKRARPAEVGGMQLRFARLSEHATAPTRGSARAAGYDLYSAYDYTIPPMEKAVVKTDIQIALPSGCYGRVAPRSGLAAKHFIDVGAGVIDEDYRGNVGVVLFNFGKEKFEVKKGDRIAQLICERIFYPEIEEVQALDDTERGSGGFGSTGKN
Text: as §1

Structures are written as SMILES. pKi: −log10 of the molar value.

As usually defined, the pKi is the negative decadic logarithm of the Ki, by convention in mol/L.

With `O=c1ccn(C2CC(O)C(COP(=O)(Oc3ccccc3)Oc3ccccc3)O2)c(=O)[nH]1` (stereo not drawn) [dUTPase inhibitor, 1], the negative-log Ki (pKi) in test [1] is 3.00; in test [2], 3.62; in test [3], 3.87.

Take `O=c1ccn(C2CC(O)C(CO[Si](c3ccccc3)(c3ccccc3)c3ccccc3)O2)c(=O)[nH]1` (stereo not drawn): the pKi in test [2] was 5.55; in test [3], 3.04.

Consider `CC(C)(C)[Si](C)(C)OCC1OC(n2ccc(=O)[nH]c2=O)CC1F` (stereo not drawn) [dUTPase inhibitor, 6], for which the negative logarithm of the Ki (pKi) in test [2] is 5.20; in test [3], below 3.00.

As for `CC(C)(C)[Si](OCC1OC(n2ccc(=O)[nH]c2=O)CC1O)(c1ccccc1)c1ccccc1` (stereo not drawn), the results for the pKi in test [2] and in test [3] were 5.38 and 3.09, respectively.

In test [1], `O=c1ccn(C2C=CC(COC(c3ccccc3)(c3ccccc3)c3ccccc3)O2)c(=O)[nH]1` (stereo not drawn) [dUTPase inhibitor, 2] gave a pKi of 3.00.

The compound `O=c1ccn(C2CC(O)C(CNCc3ccccc3)O2)c(=O)[nH]1` (stereo not drawn) gave a negative logarithm of the Ki (pKi) in test [3] of 3.00.

With `O=C(OCC1C=CC(n2ccc(=O)[nH]c2=O)O1)C12CC3CC(CC(C3)C1)C2` (stereo not drawn) [dUTPase inhibitor, 3], the results for the negative logarithm of the Ki (pKi) in test [1], in test [2] and in test [3] were 3.26, 4.24 and 3.53, respectively.

As to `CC(C)[Si](OCC1OC(n2ccc(=O)[nH]c2=O)CC1O)(C(C)C)C(C)C` (stereo not drawn), the figures for the pKi in test [2] and in test [3] were 3.64 and 3.00, respectively.

For `CC(C)(C)[Si](OCC1C=CC(n2ccc(=O)[nH]c2=O)O1)(c1ccccc1)c1ccccc1` (stereo not drawn) [dUTPase inhibitor, 5], the pKi was 5.94 in test [2] and below 3.00 in test [3].
